Results reported in article PMC5785774 (ACS Central Science, 2018).

Molecular target: PKCδ-C1b (Mus musculus, UniProt P28867)
Assay: Kd measured in the peptide-phospholipid composition used for NMR
Format: binding

Chain of PKCδ-C1b (P28867 231-281 limits assumed): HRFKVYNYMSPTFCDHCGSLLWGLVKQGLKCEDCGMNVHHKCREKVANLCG

## CCCC(=O)O[C@@H]1[C@@H](C)[C@@]2(O)[C@@H](C=C(CO)C[C@]3(O)C(=O)C(C)=C[C@@H]23)[C@@H]2C(C)(C)[C@]12OC(=O)CCC [phorbol 12,13-dibutyrate]
  Kd: 1.5 nM
